This is an account of results in PubChem BioAssay AID743029 (The Scripps Research Institute Molecular Screening Center, 2013).

As usually defined, the inhibition is the relative decrease from the control value, in per cent.

What all share (test): CYP450 isoform inhibition, late-stage follow-up, ADME assay for V1a-R antagonist project, biochemical, LC-MS (AID 743029)
The target in series [1] is Cytochrome P450 3A4 (Homo sapiens) (UniProt P08684). Particulars: human CYP isoforms, marker substrate metabolism, CYP3A4, at 10 µM, stronger effect = higher value.
Series [2] addresses Cytochrome P450 2C9 (Homo sapiens) (UniProt P11712). Particulars: human CYP isoforms, marker substrate metabolism, CYP2C9, at 10 µM, stronger effect = higher value.
Series [3] deals with Cytochrome P450 2D6 (Homo sapiens) (UniProt P10635). The settings on record: human CYP isoforms, marker substrate metabolism, CYP2D6, at 10 µM, stronger effect = higher value.
The target of series [4] is Cytochrome P450 1A2 (Homo sapiens) (UniProt P05177). The settings on record: human CYP isoforms, marker substrate metabolism, CYP1A2, at 10 µM, stronger effect = higher value.
Cytochrome P450 1A2 (Homo sapiens), sequence (P05177 whole entry, looked up, canonical isoform): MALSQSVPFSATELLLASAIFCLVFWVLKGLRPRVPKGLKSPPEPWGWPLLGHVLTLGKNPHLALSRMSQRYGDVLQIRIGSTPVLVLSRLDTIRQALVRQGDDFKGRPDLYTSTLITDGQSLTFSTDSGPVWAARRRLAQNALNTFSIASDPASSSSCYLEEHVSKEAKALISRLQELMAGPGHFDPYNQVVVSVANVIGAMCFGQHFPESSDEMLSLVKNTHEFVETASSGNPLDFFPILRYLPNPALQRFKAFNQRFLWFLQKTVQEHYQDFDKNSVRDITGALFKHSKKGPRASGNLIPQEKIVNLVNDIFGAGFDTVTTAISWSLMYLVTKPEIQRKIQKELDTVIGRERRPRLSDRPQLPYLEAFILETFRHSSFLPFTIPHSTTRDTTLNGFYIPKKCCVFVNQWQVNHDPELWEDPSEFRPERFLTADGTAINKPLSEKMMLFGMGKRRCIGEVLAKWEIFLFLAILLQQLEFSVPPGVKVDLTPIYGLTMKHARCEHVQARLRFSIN

Cytochrome P450 2D6 (Homo sapiens), sequence (P10635 whole entry, looked up, canonical isoform): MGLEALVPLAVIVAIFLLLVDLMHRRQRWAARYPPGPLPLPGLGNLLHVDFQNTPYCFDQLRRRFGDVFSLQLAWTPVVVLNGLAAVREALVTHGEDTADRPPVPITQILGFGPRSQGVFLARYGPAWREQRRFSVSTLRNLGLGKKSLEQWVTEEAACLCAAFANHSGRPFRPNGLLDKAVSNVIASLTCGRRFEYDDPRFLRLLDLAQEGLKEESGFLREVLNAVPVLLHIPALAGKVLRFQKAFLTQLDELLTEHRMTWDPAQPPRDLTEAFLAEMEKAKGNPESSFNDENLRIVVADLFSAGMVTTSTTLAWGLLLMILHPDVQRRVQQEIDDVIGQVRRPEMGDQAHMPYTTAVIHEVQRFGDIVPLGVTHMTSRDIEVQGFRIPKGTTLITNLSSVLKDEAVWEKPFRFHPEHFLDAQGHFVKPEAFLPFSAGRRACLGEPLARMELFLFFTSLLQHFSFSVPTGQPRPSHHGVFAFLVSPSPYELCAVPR
Cytochrome P450 2C9 (Homo sapiens), sequence (P11712 whole entry, looked up, canonical isoform): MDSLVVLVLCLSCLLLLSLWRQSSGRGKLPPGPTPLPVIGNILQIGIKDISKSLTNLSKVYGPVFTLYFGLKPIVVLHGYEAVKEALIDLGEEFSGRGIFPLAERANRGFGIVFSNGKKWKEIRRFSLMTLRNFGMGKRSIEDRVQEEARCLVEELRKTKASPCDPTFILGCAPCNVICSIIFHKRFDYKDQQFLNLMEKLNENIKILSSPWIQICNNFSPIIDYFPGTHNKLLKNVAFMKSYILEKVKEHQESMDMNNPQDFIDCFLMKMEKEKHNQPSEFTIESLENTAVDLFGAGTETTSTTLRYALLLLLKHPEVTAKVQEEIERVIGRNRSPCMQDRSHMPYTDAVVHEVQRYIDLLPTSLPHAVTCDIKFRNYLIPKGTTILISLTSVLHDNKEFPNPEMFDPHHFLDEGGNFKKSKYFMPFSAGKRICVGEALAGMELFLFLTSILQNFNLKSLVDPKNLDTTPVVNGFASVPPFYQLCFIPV
Cytochrome P450 3A4 (Homo sapiens), sequence (P08684 whole entry, looked up, canonical isoform): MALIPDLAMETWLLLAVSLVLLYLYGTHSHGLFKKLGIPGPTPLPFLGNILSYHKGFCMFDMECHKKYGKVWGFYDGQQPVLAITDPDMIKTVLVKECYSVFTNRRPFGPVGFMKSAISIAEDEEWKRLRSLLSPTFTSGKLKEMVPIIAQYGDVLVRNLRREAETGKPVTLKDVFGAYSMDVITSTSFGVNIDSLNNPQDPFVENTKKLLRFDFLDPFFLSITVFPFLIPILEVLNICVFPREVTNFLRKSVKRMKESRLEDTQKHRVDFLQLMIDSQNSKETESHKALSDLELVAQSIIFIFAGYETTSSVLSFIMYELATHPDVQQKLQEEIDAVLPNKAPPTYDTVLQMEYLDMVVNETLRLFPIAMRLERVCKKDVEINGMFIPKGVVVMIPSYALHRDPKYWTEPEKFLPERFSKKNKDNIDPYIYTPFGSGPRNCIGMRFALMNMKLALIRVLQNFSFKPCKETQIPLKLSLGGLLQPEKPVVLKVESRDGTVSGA

For the molecule `O=C(C1CCN(c2ccc(Cl)cn2)CC1)N(CC1CC1)c1ccc(Cl)cc1`, the inhibition was -5% in series [1], -6% in series [2], 2% in series [3] and -19% in series [4].
